In PubChem BioAssay AID1557 (Sanford-Burnham Center for Chemical Genomics, 2009):
Calls of active or inactive are those of the source. The rule behind the calls is not given here.

Tested on: PAMPA artificial membrane permeability, UV readout, 30 min
Assay: PAMPA effective permeability – biophysical, pH 7.4, 6.2, 5.0, ADME assay, late-stage follow-up (AID 1557)
Settings: at 50 µM, stronger effect = higher value

effective permeability pH 7.4: 58 10-6 cm/s (inactive)
effective permeability pH 5.0 (measured here: permeability at pH 5.0): 90 10-6 cm/s
effective permeability pH 6.2 (measured here: permeability at pH 6.2): 98 10-6 cm/s
SMILES: C=CCn1c(SCC(=O)c2ccc(O)c(O)c2)nnc1-c1ccccc1OC
